Assay results taken from US20120095108A1, “COMPOSITION CONTAINING MICROBIAL ZEAXANTHIN AND PREPARATION THEREOF” (Vigenent Inc., priority 2010, published 2012).

Tests used:
[1] = system: prostate carcinoma (PC-3); assay: Anti-proliferation MTT assay, PC-3; format: cell-based; conditions: Homo sapiens, 24 hrs, read-out: cell viability
Description: (§1) Cancer cells were cultured on a dish, and the cells were treated with microbial zeaxanthin dissolved in dimethyl sulfoxide. After 24 hrs incubation, thiazolyl blue tetrazolium bromide was added to the cells and incubated for 4 hours. The medium was removed and the crystals were dissolved in dimethyl sulfoxide followed by measuring the absorbance at 590 nm. Cell viability=(Abs of cell treated zeaxanthin/Abs of cell with no treatment)*100%. Since xanthophylls have been reported to be associated with lower risk of cancers (Orjuela et al., (2005) Cancer Epidemiol Biomarkers Prey. 14:1433-40; Kelemen et al., (2006) Am J Clin Nutr. 83: 1401-10; Zhang et al., (2007) Nutr Cancer. 59:46-53; Tamimi et al., (2009) Cancer Res. 69: 9323-9; Lee et al., (2009) Cancer Epidemiol Biomarkers Prey. 18:1730-9), it is necessary to determine if the microbial zeaxanthin contains anti-cancer activity. […] For comparison, the cell viabilities of non-cancer cells are 105.6% for retinal pigmented epithelium cell (ARPE-19); 102.3% for embryonic fibroblast (BCRC60118) and 95.8% for human skin fibroblast (BCRC 60153). […] For comparison, the cell viabilities of non-cancer cells are 124.2% for retinal pigmented epithelium cell (ARPE-19); 101.2% for embryonic fibroblast (BCRC60118) and 99.8% for human skin fibroblast (BCRC 60153). […]

[2] = system: colorectal adenocarcinoma (LS123); assay: Anti-proliferation MTT assay, LS123; format: cell-based; conditions: Homo sapiens, 24 hrs, read-out: cell viability
Description: as §1

[3] = system: gastric adenocarcinoma (AGS); assay: Anti-proliferation MTT assay, AGS; format: cell-based; conditions: Homo sapiens, 24 hrs, read-out: cell viability
Description: as §1

[4] = system: breast adenocarcinoma (MCF7); assay: Anti-proliferation MTT assay, MCF7; format: cell-based; conditions: Homo sapiens, 24 hrs, read-out: cell viability
Description: as §1

[5] = system: ovarian cancer (TOV-112D); assay: Anti-proliferation MTT assay, TOV-112D; format: cell-based; conditions: Homo sapiens, TOV112D, 24 hrs, read-out: cell viability
Description: as §1

[6] = system: pharynx squamous cell carcinoma (FaDu); assay: Anti-proliferation MTT assay, FaDu; format: cell-based; conditions: Homo sapiens, 24 hrs
Description: as §1

[7] = system: pancreatic adenocarcinoma (BxPC-3); assay: Anti-proliferation MTT assay, BxPC-3; format: cell-based; conditions: Homo sapiens, 24 hrs, read-out: cell viability
Description: as §1

choriocarcinoma (JAR) = assay: Anti-proliferation MTT assay, JAR; format: cell-based; conditions: Homo sapiens, 24 hrs, read-out: cell viability
Description: as §1

[8] = system: bladder primary carcinoma (5637); assay: Anti-proliferation MTT assay, 5637; format: cell-based; conditions: Homo sapiens, 24 hrs, read-out: cell viability
Description: as §1

[9] = system: thyroid squamous cell carcinoma (SW579); assay: Anti-proliferation MTT assay, SW579; format: cell-based; conditions: Homo sapiens, 24 hrs
Description: as §1

[10] = MTT assay, non-cancer cells ARPE-19; format: cell-based; conditions: human, ARPE-19 retinal pigmented epithelium cells (non-cancer), read-out: cell viability of non-cancer cells
Description: as §1

[11] = MTT assay, non-cancer cells BCRC60118; format: cell-based; conditions: human, embryonic fibroblast cells BCRC60118 (non-cancer), read-out: cell viability of non-cancer cells
Description: as §1

[12] = MTT assay, non-cancer cells BCRC 60153; format: cell-based; conditions: human, skin fibroblast cells BCRC 60153 (non-cancer), read-out: cell viability of non-cancer cells
Description: as §1

[13] = Lipid peroxidation inhibitory activity, ferric thiocyanate method; format: biochemical; conditions: 60 μg/ml; OD 500 nm; 24 hours incubation 37° C.
Description: Microbial zeaxanthin was dissolved in 0.2 M potassium phosphate buffer and mixed with linoleic acid emulsion mixture prepared by potassium phosphate buffer. After 24 hours incubation in 37° C., the mixture was added with 75% ethanol, ammonium thiocyanate, and iron(II) chloroide tetrahydrate. The absorbance at 500 nm was determined after 1 min incubation. Inhibtion activity=[1−(Abs of sample/Abs of blank)]*100%.

[14] = Lipid peroxidation inhibitory activity, conjugated diene method; format: biochemical; conditions: 30 μg/ml; OD 234 nm; 15 hour incubation 37° C.
Description: Microbial zeaxanthin was dissolved in 0.2 M potassium phosphate buffer and mixed with linoleic acid emulsion mixture prepared by potassium phosphate buffer. The absorbance of 234 nm was determined after 15 hour incubation in 37° C. Inhibition activity=[1−(Abs of sample/Abs of blank)]*100%.

[15] = system: Human skin fibroblast cells (CCD-966SK cell line); assay: Photoprotection activity: viability of UV-irradiated human skin fibroblast cells; format: cell-based; conditions: 15 min UV irradiation, determined at 24 hours
Description: Human skin fibroblast cells (CCD-966SK cell line) were cultured on the dish. The cells were treated with microbial zeaxanthin dissolved in dimethyl sulfoxide. After treated for 24 hours the dishes were irradiated UV for 15 min and the cells were incubated for 24 hours. The cells were detached by trypsin and counted by hemocytometer. The protection effect of microbial zeaxanthin on the viability of fibroblast cells is provided (FIG. 3).
Skin fibroblast cells, the essential cells of skin, are responsible for the production of collagen, a structural component of the skin (Stanley et al., (1985) J Invest Dermatol. 85:542-545; Olsen et al., (1989) J. Clin. Invest. 83: 791-795; Akagi et al., (1999) J. Invest. Dermatol. 113: 246-250). Collagen reduction is a biological phenomenon responsible for the wrinkled appearance found in the aged skin caused either intrinsic (chronologic aging) or extrinsic (e.g., photoaging: exposure to UV irradiation) (Burke et al., (1994) Exp Gerontol 29:37-53; Fisher et al., (1997) New Eng J Med 337:1419-1428; Fligiel et al., (2003) J Invest Dermatol. 120:842-848; Varani et al., (2006) Am J Pathol. 168:1861-8; Chauhan and Shakya, (2009) Indian J Dermatol Venereol Leprol. 75:463-8). […]

[16] = Lipid peroxidation inhibitory activity, liposome-TBARS method; format: biochemical; conditions: OD 532 nm
Description: Microbial zeaxanthin was dissolved in methanol and mixed with liposome emulsion, iron(III) chloride, and ascorbic acid. After 2 hours water bath in 37° C. the mixture was added with butylated hydorxytoluene, thibarbituric acid, and trichloroacetic acid. After 20 min of water bath (100° C.), the mixture was chilled with ice. The absorbance at 532 nm was determined. MDA (malondialdehyde) inhibiton activity=[1−(Abs of sample/Abs of blank)]*100%.

[17] = Total antioxidant activity, TEAC (trolox equivalent antioxidant capacity) method; format: biochemical; conditions: OD 734 nm
Description: Microbial zeaxanthin was dissolved in 0.01M sodium phosphate buffer and mixed with 2,2′-azino-bis(3-ethylbenzthiazoline-6-sulphonic acid) containing potassium persulfate. The absorbance at 734 nm was determined after 30 min incubation. Inhibition activity=[1−(Abs of sample/Abs of blank)]*100%.

[18] = Antioxidant activity, DPPH free radical scavenging method; format: biochemical; conditions: OD 517 nm
Description: Microbial zeaxanthin was dissolved in methanol and mixed with 2,2-diphenyl-1-picrylhydrazyl in methanol. The absorbance at 517 nm was determined after 30 min incubation. Inhibition activity=[1−(Abs of sample/Abs of blank)]*100%.

B16/F10 melanoma cells = assay: Melanin content in melanoma cells; format: cell-based; conditions: Mus musculus, OD 400 nm; for inhibition at 2 µg/mL: 2 μg/ml; for inhibition at 20 µg/mL: 20 μg/ml
Description: B16 F0 mouse melanoma cells were cultured on the dish. The cells were treated with microbial zeaxanthin dissolved in dimethyl sulfoxide. After treated for 24 hrs and 48 hrs, respectively, the medium was removed and the cells were washed with PBS and then dissolved in 1 N NaOH containing 10% DMSO. The relative melanin content was determined at OD400 nm.

[19] = cited from earlier work

CC1=C(/C=C/C(C)=C/C=C/C(C)=C/C=C/C=C(C)/C=C/C=C(C)/C=C/C2=C(C)C[C@@H](O)CC2(C)C)C(C)(C)C[C@H](O)C1 (stereo in doubt) [microbial zeaxanthin, 4-[18-(4-hydroxy-2,6,6-trimethyl-1-cyclohexenyl)-3,7,12,16-tetramethyl-octadeca-1,3,5,7,9,11,13,15,17-nonaenyl]-3,5,5-trimethyl-cyclohex-3-en-1-ol]
viability at 30 µg/mL ([1]; 30 μg/ml): 74%
viability at 60 µg/mL ([1]; 60 μg/ml): 67.7%
viability at 30 µg/mL ([2]; LS-123, 30 μg/ml): 72.3%
viability at 60 µg/mL ([2]; LS-123, 60 μg/ml): 75.3%
viability at 30 µg/mL ([3]; 30 μg/ml): 57.3%
viability at 60 µg/mL ([3]; 60 μg/ml): 40.1%
viability at 30 µg/mL ([4]; 30 μg/ml): 78.7%
viability at 60 µg/mL ([4]; 60 μg/ml): 61.6%
viability at 30 µg/mL ([5]; 30 μg/ml): 70.3%
viability at 60 µg/mL ([5]; 60 μg/ml): 20.3%
viability at 30 µg/mL ([6]; 30 μg/ml): 72.6%
viability at 60 µg/mL ([6]; 60 μg/ml): 28.5%
viability at 30 µg/mL ([7]; 30 μg/ml): 75.6%
viability at 60 µg/mL ([7]; 60 μg/ml): 33.4%
viability at 30 µg/mL (choriocarcinoma (JAR); 30 μg/ml): 72.1%
viability at 60 µg/mL (choriocarcinoma (JAR); 60 μg/ml): 40%
viability at 30 µg/mL ([8]; 30 μg/ml): 45.9%
viability at 60 µg/mL ([8]; 60 μg/ml): 16.4%
viability at 30 µg/mL ([9]; 30 μg/ml): 70.9%
viability at 60 µg/mL ([9]; 60 μg/ml): 71.7%
viability at 24 h, 30 μg/ml ([10]; 30 μg/ml): 106%
viability at 24 h, 60 μg/ml ([10]; 60 μg/ml): 124%
viability at 24 h, 30 μg/ml ([11]; 30 μg/ml): 102%
viability at 24 h, 60 μg/ml ([11]; 60 μg/ml): 101%
viability at 24 h, 30 μg/ml ([12]; 30 μg/ml): 95.8%
viability at 24 h, 60 μg/ml ([12]; 60 μg/ml): 99.8%

CC1=C[C@H](O)CC(C)(C)[C@H]1/C=C/C(C)=C/C=C/C(C)=C/C=C/C=C(C)/C=C/C=C(C)/C=C/C1=C(C)C[C@@H](O)CC1(C)C [lutein, reference compound]
lipid peroxidation inhibitory activity (ferric thiocyanate method) [13]: 68.6%
lipid peroxidation inhibitory activity (conjugated diene method) [14]: 68.7%

CC1=C(/C=C/C(C)=C/C=C/C(C)=C/C=C/C=C(C)/C=C/C=C(C)/C=C/C2=C(C)C[C@@H](O)CC2(C)C)C(C)(C)C[C@H](O)C1 [microbial zeaxanthin, 4-[18-(4-hydroxy-2,6,6-trimethyl-1-cyclohexenyl)-3,7,12,16-tetramethyl-octadeca-1,3,5,7,9,11,13,15,17-nonaenyl]-3,5,5-trimethyl-cyclohex-3-en-1-ol]
cell viability increased as compared to no zeaxanthin treatment ([15]; 20 μg/ml): 18.9%
cell viability increased as compared to no zeaxanthin treatment ([15]; 50 μg/ml): 33.7%
lipid peroxidation inhibitory activity (ferric thiocyanate method) [13]: 66.9%
lipid peroxidation inhibitory activity (conjugated diene method) [14]: 67.4%
inhibition on free MDA formation ([16]; 125 μg/ml): 55.23%
inhibition on free MDA formation ([16]; 250 μg/ml): 61.05%
inhibition on free MDA formation ([16]; 500 μg/ml): 71.16%
inhibition on free MDA formation ([16]; 1000 μg/ml): 78.45%
inhibition on free MDA formation ([16]; 2000 μg/ml): 80.75%
inhibition on absorbance (TEAC) ([17]; 62.5 μg/ml): 15.68%
inhibition on absorbance (TEAC) ([17]; 125 μg/ml): 28.13%
inhibition on absorbance (TEAC) ([17]; 250 μg/ml): 53.35%
inhibition on absorbance (TEAC) ([17]; 500 μg/ml): 91.22%
inhibition on absorbance (DPPH) ([18]; 62.5 μg/ml): 10.02%
inhibition on absorbance (DPPH) ([18]; 125 μg/ml): 13.04%
inhibition on absorbance (DPPH) ([18]; 250 μg/ml): 30.18%
inhibition on absorbance (DPPH) ([18]; 500 μg/ml): 48.20%
inhibition on absorbance (DPPH) ([18]; 1000 μg/ml): 96.69%
inhibition at 2 µg/mL (B16/F10 melanoma cells; 24 hrs): 6.74%
inhibition at 2 µg/mL (B16/F10 melanoma cells; 48 hrs): 32.5%
inhibition at 20 µg/mL (B16/F10 melanoma cells; 24 hrs): 22.7%
inhibition at 20 µg/mL (B16/F10 melanoma cells; 48 hrs): 36.7%
Solubility in chloroform ([19]; chloroform): soluble giving a clear intensive orange-red
Solubility in ethanol ([19]; ethanol): sparingly
Solubility in water ([19]; water): insoluble
